Reference: a melting point compilation (Tetko et al.)

Structure (SMILES) | melting point [°C]
FC(F)(F)Oc1cccc2c(Cl)ccnc12 | 51 to 53
CC(C)(C)OC(=O)NC12CCC(C(=O)O)(C1)C2 | 169 to 171
CNC(=O)COc1ccc(N)c(F)c1 | 81 to 83
CCOC(=O)c1cnn2cccnc12 | 117 to 119
Cc1nc2sc(C(=O)O)c(C)c2c(=O)[nH]1 | 388 to 390
Cc1ccccc1Cc1nn[nH]n1 | 156 to 158
CC(=O)N1CCCCC1CC(=O)O (stereo not drawn) | 112 to 114
NC(=O)c1ccc(CCl)cc1 | 178 to 180
O=C(O)c1cccn1Cc1cccnc1 | 172 to 174
Cc1cc(C)c([N+](=O)[O-])c(C)c1C(=O)O | 169 to 171
O=C(O)COc1ccc(Oc2ccccn2)cc1 | 154 to 156
COc1ccccc1CC(=O)NN | 112 to 114
Nc1cccc(S(=O)(=O)NCc2ccco2)c1 | 83 to 85
O=Cc1ccccc1OCc1ccncc1 | 65 to 67
N#CCNC(=O)CCl | 88 to 90
O=C(O)c1ccc(CN2CCCCC2=O)cc1 | 181 to 183
COC(=O)c1ccc(C(N)=S)cc1 | 189 to 191
Oc1ccc(OC2CCCC2)cc1 | 50 to 52
Cc1nc(C)c(CC(=O)O)c(=O)[nH]1 | 229 to 231
O=c1[nH]c2ccc(S(=O)(=O)Cl)cc2[nH]1 | 210 to 212
Cc1cc(C(=O)CCl)c(C)n1Cc1ccccc1 | 64 to 68
COC(=O)C1C2CCC(N2)C1C(=O)OC (stereo not drawn) | 77 to 79
O=C(O)C1(Br)CCC1 | 40 to 42
CC(=O)c1cccc(-n2cnnn2)c1 | 155 to 157
Cc1ccc(S(=O)(=O)N2CCN(C(=O)C(C)Cl)CC2)cc1 (stereo not drawn) | 153 to 155

Structure (SMILES) | melting point [°C]
O=C1CCSc2c(Cl)cccc21 | 91 to 93
CCCC1(CCC)NC(=O)NC1=O | 205 to 207
CC(=O)Nc1cccc(CN)c1 | 82 to 84
Cc1ccc(S(=O)(=O)NCC(=O)O)cc1C | 123 to 125
CNc1ccc(-c2ccccc2)nn1 | 157 to 159
CCOC(=O)c1cc(Br)cc(F)c1N | 48 to 50
Cc1cc(S(N)(=O)=O)cc(NC(=O)CCl)c1C | 210 to 212
N#CCc1cccc(C(=O)O)c1 | 166 to 168
O=C(O)CCCn1cc(Br)cn1 | 94 to 96
O=Cc1ccc(OCc2cccnc2)cc1 | 75 to 77
CCOc1ccc(C(=O)CC(=O)C(=O)OC)cc1 | 88 to 92
O=C(O)Cc1csc(N2CCCC2=O)n1 | 118 to 120
CC(C)(C)OC(=O)N1CCC(I)CC1 | 44 to 46
NCCS(=O)(=O)N1CCSCC1 | 59 to 61
Cc1nn(CCC(=O)O)c(C)c1[N+](=O)[O-] | 116 to 118
N#CN=C1CCCN1 | 126 to 128
N#Cc1cc(Br)cc(S(N)(=O)=O)c1 | 199 to 201
NC1CCC(c2nc(-c3ccccc3)n[nH]2)CC1 (stereo not drawn) | 163 to 165
N#CCC1(Sc2ccccc2N)CCCC1 | 89 to 91
CC(NC(=O)CCl)C(=O)O (stereo not drawn) | 125 to 127
O=C(CCl)Nc1ccc(Cl)c(Cl)c1 | 103 to 105
CSc1ccccc1NC(=O)C(C)Cl (stereo not drawn) | 59 to 61
O=c1c(Br)c[nH]cc1[N+](=O)[O-] | 332 to 334
CSCc1cc(C(=O)O)ccc1F | 119 to 121
OCC1CNC(c2ccccc2)=NO1 (stereo not drawn) | 149 to 151

Structure (SMILES) | melting point [°C]
O=C1Nc2cc(F)c([N+](=O)[O-])cc2C1=O | 236 to 238
Cc1cc(F)c(N)c(I)c1 | 32 to 34
CC1=CC(=O)N(c2ccccc2C(=O)O)C1=O | 163 to 165
CCC(C)n1ncc2c(C(=O)O)cc(C)nc21 (stereo not drawn) | 148 to 150
O=C(O)c1cccc(S(=O)(=O)Nc2ccc(OCc3ccccc3)cc2)c1 | 81 to 83
CN1CCC(O)(c2ccccc2)CC1 | 111 to 113
C=CC(=O)ON=C(N)c1ccc(Cl)cc1 | 120 to 122
O=C(O)CCCOc1cccc(Br)c1 | 50 to 52
O=C1Cn2ccnc2CN1 | 179 to 181
O=C1CCc2c(Cl)cc(Br)cc21 | 124 to 126
Cc1nc(CC(C)C)sc1C(=O)O | 169 to 171
CNC1CCC(NC(=O)OC(C)(C)C)CC1 (stereo not drawn) | 72 to 74
CN1CCCc2cc(/C=C/C(=O)O)ccc21 | 169 to 171
O=C1CCCc2c(Cl)sc(Cl)c21 | 37 to 39
OC(CC1COCCN1)c1ccco1 (stereo not drawn) | 84 to 86
O=C1NC(=O)N(c2ccccc2)C1=O | 213 to 215
Cc1occc1-c1cc(N)n(CCO)n1 | 128 to 130
Nc1c(-c2ccccc2)nc2sccn12 | 148 to 152
Cc1cc(C)c(S(N)(=O)=O)cc1C | 179 to 181
COc1cc2nc(C)sc2cc1N | 89 to 91
Nc1nc2c(F)cc(F)cc2s1 | 197 to 199
Cc1ccc2c(c1C)NC(=O)C2=O | 228 to 232
Cc1ccc(C(N)=S)c(C)c1 | 59 to 63
